Here are results for one substance from patent publication EP0190597A2, “Retro-inverso analogs of the bradykinin potentiating peptide bpp 5a” (SCLAVO S.p.A., priority 1985, dated 1986).

The target of this experiment is angiotensin converting enzyme. In words: Inhibition of angiotensin converting enzyme (method of Cushman and Cheung). The format is biochemical, rabbit. The settings on record: in vitro; ratio of IC50 versus BPP5a or Glp-Lys-Phe-Ala-Pro-OH. The text has this:
In particular, comparative experiments carried out […] in order to evaluate the ACE inhibitory activity of the compounds of the present invention gave the results reported in following table I (IC50 represents the concentration of the test compound, in µM, which inhibits the angiotensin converting enzyme by 50%. The enzyme employed in this test has been isolated from rabbit lungs according to the method by Cushman and Cheung described in Biochem. Pharmacol. 2Q, 1637, (1971)).

As for Glp--Lys-gPhe-mAla-Pro-OH, the “IC50 times higher than that of the natural product (BPPSa) or the corresponding uninverted peptide Glp-Lys-Phe-Ala-Pro-OH” value is “more than 1000 times”.
